System: p53 signaling pathway in MT373 tumors
Assay: MT373 syngeneic sarcoma model: mouse p53 signaling pathway profiling panel
Type: in vivo

## CCn1c(C#CCNc2ccccc2)cc2cc(CNC3CCN(C)CC3)ccc21 [Compound 1, 1-Anilino-3-{1-ethyl-5-[(1-methyl-4-piperidylamino)methyl]-1H-indol-2-yl}-2-propyne]
75 mg/kg BIDx1, 48 h
  Dnmt1 fold increase or percent reduction vs vehicle control: 1.11 fold or %
  E2f1 fold increase or percent reduction vs vehicle control: 1.24 fold or %
  E2f3 fold increase or percent reduction vs vehicle control: 30.44 fold or %
  Egfr fold increase or percent reduction vs vehicle control: 34.80 fold or %
  Egr1 fold increase or percent reduction vs vehicle control: 39.68 fold or %
  Ep300 fold increase or percent reduction vs vehicle control: 1.01 fold or %
  Ercc1 fold increase or percent reduction vs vehicle control: 43.22 fold or %
  Esr1 fold increase or percent reduction vs vehicle control: 1.78 fold or %
  Fadd fold increase or percent reduction vs vehicle control: 1.13 fold or %
  Fas fold increase or percent reduction vs vehicle control: 10.67 fold or %
  Fasl fold increase or percent reduction vs vehicle control: 1.48 fold or %
  Foxo3 fold increase or percent reduction vs vehicle control: 3.18 fold or %
  Gadd45a fold increase or percent reduction vs vehicle control: 49.07 fold or %
  Hif1a fold increase or percent reduction vs vehicle control: 1.22 fold or %
  Il6 fold increase or percent reduction vs vehicle control: 80.18 fold or %
  Jun fold increase or percent reduction vs vehicle control: 29.72 fold or %
  Kras fold increase or percent reduction vs vehicle control: 1.01 fold or %
  Lig4 fold increase or percent reduction vs vehicle control: 1.05 fold or %
  Mdm2 fold increase or percent reduction vs vehicle control: 12.55 fold or %
  Mdm4 fold increase or percent reduction vs vehicle control: 19.35 fold or %
  Mel1 fold increase or percent reduction vs vehicle control: 31.09 fold or %
  Mlh1 fold increase or percent reduction vs vehicle control: 7.78 fold or %
  Msh2 fold increase or percent reduction vs vehicle control: 11.63 fold or %
  Myod1 fold increase or percent reduction vs vehicle control: 4.06 fold or %
  Nf1 fold increase or percent reduction vs vehicle control: 29.60 fold or %
  Nfkb1 fold increase or percent reduction vs vehicle control: 7.16 fold or %
  Pcna fold increase or percent reduction vs vehicle control: 38.45 fold or %
  Pmaip1 fold increase or percent reduction vs vehicle control: 1.15 fold or %
  Ppm1d fold increase or percent reduction vs vehicle control: 4.68 fold or %
  Prc1 fold increase or percent reduction vs vehicle control: 16.43 fold or %
  Prkca fold increase or percent reduction vs vehicle control: 13.73 fold or %
  Pten fold increase or percent reduction vs vehicle control: 1.01 fold or %
  Pttg1 fold increase or percent reduction vs vehicle control: 1.08 fold or %
  Rb1 fold increase or percent reduction vs vehicle control: 2.55 fold or %
  Rela fold increase or percent reduction vs vehicle control: 1.07 fold or %
  Rprm fold increase or percent reduction vs vehicle control: 2.09 fold or %
  Serpinb5 fold increase or percent reduction vs vehicle control: 1.90 fold or %
  Sesn2 fold increase or percent reduction vs vehicle control: 1.57 fold or %
  Sfn fold increase or percent reduction vs vehicle control: 1.00 fold or %
  Sirt1 fold increase or percent reduction vs vehicle control: 1.01 fold or %
  Stat1 fold increase or percent reduction vs vehicle control: 1.73 fold or %
  Tnf fold increase or percent reduction vs vehicle control: 1.36 fold or %
  Traf1 fold increase or percent reduction vs vehicle control: 1.38 fold or %
  Trp53bp2 fold increase or percent reduction vs vehicle control: 1.06 fold or %
  Trp53 fold increase or percent reduction vs vehicle control: 1.16 fold or %
75 mg/kg BIDx1, 72 h
  Apex1 fold increase or percent reduction vs vehicle control: 24.49 fold or %
  Atm fold increase or percent reduction vs vehicle control: 12.27 fold or %
  Atr fold increase or percent reduction vs vehicle control: 1.01 fold or %
  Bag1 fold increase or percent reduction vs vehicle control: 25.72 fold or %
  Bax fold increase or percent reduction vs vehicle control: 20.93 fold or %
  Bbc3 fold increase or percent reduction vs vehicle control: 1.08 fold or %
  Bcl2 fold increase or percent reduction vs vehicle control: 2.76 fold or %
  Bid fold increase or percent reduction vs vehicle control: 1.12 fold or %
  Birc5 fold increase or percent reduction vs vehicle control: 12.81 fold or %
  Brca1 fold increase or percent reduction vs vehicle control: 10.57 fold or %
  Brca2 fold increase or percent reduction vs vehicle control: 12.51 fold or %
  Btg2 fold increase or percent reduction vs vehicle control: 16.69 fold or %
  Casp2 fold increase or percent reduction vs vehicle control: 5.88 fold or %
  Ccnb1 fold increase or percent reduction vs vehicle control: 10.10 fold or %
  Ccne1 fold increase or percent reduction vs vehicle control: 1.09 fold or %
  Ccng1 fold increase or percent reduction vs vehicle control: 9.69 fold or %
  Ccnh fold increase or percent reduction vs vehicle control: 11.39 fold or %
  Cdc25a fold increase or percent reduction vs vehicle control: 7.34 fold or %
  Cdk1 fold increase or percent reduction vs vehicle control: 23.09 fold or %
  Cdk4 fold increase or percent reduction vs vehicle control: 22.60 fold or %
  Cdkn1a fold increase or percent reduction vs vehicle control: 1.42 fold or %
  Cdkn2a fold increase or percent reduction vs vehicle control: 39.53 fold or %
  Chek1 fold increase or percent reduction vs vehicle control: 20.93 fold or %
  Cradd fold increase or percent reduction vs vehicle control: 31.95 fold or %
  Cul9 fold increase or percent reduction vs vehicle control: 1.28 fold or %
  Dapk1 fold increase or percent reduction vs vehicle control: 1.11 fold or %
  Dnmt1 fold increase or percent reduction vs vehicle control: 1.02 fold or %
  E2f1 fold increase or percent reduction vs vehicle control: 1.14 fold or %
  E2f3 fold increase or percent reduction vs vehicle control: 15.87 fold or %
  Egfr fold increase or percent reduction vs vehicle control: 24.18 fold or %
  Egr1 fold increase or percent reduction vs vehicle control: 40.49 fold or %
  Ep300 fold increase or percent reduction vs vehicle control: 9.15 fold or %
  Ercc1 fold increase or percent reduction vs vehicle control: 29.53 fold or %
  Esr1 fold increase or percent reduction vs vehicle control: 1.39 fold or %
  Fadd fold increase or percent reduction vs vehicle control: 1.43 fold or %
  Fas fold increase or percent reduction vs vehicle control: 12.05 fold or %
  Fasl fold increase or percent reduction vs vehicle control: 1.42 fold or %
  Foxo3 fold increase or percent reduction vs vehicle control: 14.18 fold or %
  Gadd45a fold increase or percent reduction vs vehicle control: 25.11 fold or %
  Hif1a fold increase or percent reduction vs vehicle control: 1.19 fold or %
  Il6 fold increase or percent reduction vs vehicle control: 65.67 fold or %
  Jun fold increase or percent reduction vs vehicle control: 25.77 fold or %
  Kras fold increase or percent reduction vs vehicle control: 1.09 fold or %
  Lig4 fold increase or percent reduction vs vehicle control: 1.12 fold or %
  Mdm2 fold increase or percent reduction vs vehicle control: 2.80 fold or %
  Mdm4 fold increase or percent reduction vs vehicle control: 14.78 fold or %
  Mel1 fold increase or percent reduction vs vehicle control: 21.11 fold or %
  Mlh1 fold increase or percent reduction vs vehicle control: 4.80 fold or %
  Msh2 fold increase or percent reduction vs vehicle control: 16.07 fold or %
  Myod1 fold increase or percent reduction vs vehicle control: 2.73 fold or %
  Nf1 fold increase or percent reduction vs vehicle control: 21.43 fold or %
  Nfkb1 fold increase or percent reduction vs vehicle control: 1.73 fold or %
  Pcna fold increase or percent reduction vs vehicle control: 23.22 fold or %
  Pmaip1 fold increase or percent reduction vs vehicle control: 1.03 fold or %
  Ppm1d fold increase or percent reduction vs vehicle control: 5.34 fold or %
  Prc1 fold increase or percent reduction vs vehicle control: 6.02 fold or %
  Prkca fold increase or percent reduction vs vehicle control: 6.98 fold or %
  Pten fold increase or percent reduction vs vehicle control: 3.49 fold or %
  Pttg1 fold increase or percent reduction vs vehicle control: 1.03 fold or %
  Rb1 fold increase or percent reduction vs vehicle control: 3.16 fold or %
  Rela fold increase or percent reduction vs vehicle control: 4.69 fold or %
  Rprm fold increase or percent reduction vs vehicle control: 1.34 fold or %
  Serpinb5 fold increase or percent reduction vs vehicle control: 15.52 fold or %
  Sesn2 fold increase or percent reduction vs vehicle control: 1.11 fold or %
  Sfn fold increase or percent reduction vs vehicle control: 8.30 fold or %
  Sirt1 fold increase or percent reduction vs vehicle control: 5.18 fold or %
  Stat1 fold increase or percent reduction vs vehicle control: 1.58 fold or %
  Tnf fold increase or percent reduction vs vehicle control: 1.28 fold or %
  Traf1 fold increase or percent reduction vs vehicle control: 1.16 fold or %
  Trp53bp2 fold increase or percent reduction vs vehicle control: 7.94 fold or %
  Trp53 fold increase or percent reduction vs vehicle control: 1.11 fold or %
75 mg/kg BID×1, 24 h
  Bbc3 mRNA increase: 1.80 fold
  Birc5 mRNA decrease: 45.92%
  Ccng1 mRNA increase: 4.63 fold
  Cdc25c mRNA decrease: 60.54%
  Cdk1 mRNA decrease: 59.92%
  Cdkn1a mRNA increase: 5.16 fold
  Chek1 mRNA decrease: 52.36%
  Egfr mRNA change: 28.18%
  Il6 mRNA change: 70.78%
  Mdm2 mRNA increase: 2.76 fold
  Sesn2 mRNA increase: 2.05 fold
  Zmat3 mRNA increase: 4.14 fold
150 mg/kg BIDx1, 8 h
  Apex1 fold increase or percent reduction vs vehicle control: 27.35 fold or %
  Atm fold increase or percent reduction vs vehicle control: 22.22 fold or %
  Atr fold increase or percent reduction vs vehicle control: 27.07 fold or %
  Bag1 fold increase or percent reduction vs vehicle control: 23.32 fold or %
  Bax fold increase or percent reduction vs vehicle control: 1.68 fold or %
  Bbc3 fold increase or percent reduction vs vehicle control: 1.97 fold or %
  Bcl2 fold increase or percent reduction vs vehicle control: 28.71 fold or %
  Bid fold increase or percent reduction vs vehicle control: 12.20 fold or %
  Birc5 fold increase or percent reduction vs vehicle control: 26.07 fold or %
  Brca1 fold increase or percent reduction vs vehicle control: 34.27 fold or %
  Brca2 fold increase or percent reduction vs vehicle control: 36.90 fold or %
  Btg2 fold increase or percent reduction vs vehicle control: 13.04 fold or %
  Casp2 fold increase or percent reduction vs vehicle control: 34.08 fold or %
  Ccnb1 fold increase or percent reduction vs vehicle control: 15.72 fold or %
  Ccne1 fold increase or percent reduction vs vehicle control: 40.62 fold or %
  Ccng1 fold increase or percent reduction vs vehicle control: 6.49 fold or %
  Ccnh fold increase or percent reduction vs vehicle control: 29.12 fold or %
  Cdc25a fold increase or percent reduction vs vehicle control: 34.26 fold or %
  Cdk1 fold increase or percent reduction vs vehicle control: 39.81 fold or %
  Cdk4 fold increase or percent reduction vs vehicle control: 47.61 fold or %
  Cdkn1a fold increase or percent reduction vs vehicle control: 8.66 fold or %
  Cdkn2a fold increase or percent reduction vs vehicle control: 42.49 fold or %
  Chek1 fold increase or percent reduction vs vehicle control: 41.91 fold or %
  Cradd fold increase or percent reduction vs vehicle control: 36.95 fold or %
  Cul9 fold increase or percent reduction vs vehicle control: 26.00 fold or %
  Dapk1 fold increase or percent reduction vs vehicle control: 2.02 fold or %
  Dnmt1 fold increase or percent reduction vs vehicle control: 17.37 fold or %
  E2f1 fold increase or percent reduction vs vehicle control: 27.89 fold or %
  E2f3 fold increase or percent reduction vs vehicle control: 27.45 fold or %
  Egfr fold increase or percent reduction vs vehicle control: 39.84 fold or %
  Egr1 fold increase or percent reduction vs vehicle control: 53.86 fold or %
  Ep300 fold increase or percent reduction vs vehicle control: 11.02 fold or %
  Ercc1 fold increase or percent reduction vs vehicle control: 16.08 fold or %
  Esr1 fold increase or percent reduction vs vehicle control: 14.42 fold or %
  Fadd fold increase or percent reduction vs vehicle control: 31.64 fold or %
  Fas fold increase or percent reduction vs vehicle control: 2.12 fold or %
  Fasl fold increase or percent reduction vs vehicle control: 3.98 fold or %
  Foxo3 fold increase or percent reduction vs vehicle control: 1.15 fold or %
  Gadd45a fold increase or percent reduction vs vehicle control: 23.94 fold or %
  Hif1a fold increase or percent reduction vs vehicle control: 1.07 fold or %
